This is an account of results in patent US8049015B2 (Panmira Pharmaceuticals, LLC, priority 2008, dated 2011).

Molecules are shown by their SMILES. Where only a bound is given, the exact number is not on record here.

The target in the test is T1, human DP2 receptor (Homo sapiens, UniProt Q9Y5Y4).
T1 construct: expressed in transfected cells
T1 sequence (Q9Y5Y4 1-395): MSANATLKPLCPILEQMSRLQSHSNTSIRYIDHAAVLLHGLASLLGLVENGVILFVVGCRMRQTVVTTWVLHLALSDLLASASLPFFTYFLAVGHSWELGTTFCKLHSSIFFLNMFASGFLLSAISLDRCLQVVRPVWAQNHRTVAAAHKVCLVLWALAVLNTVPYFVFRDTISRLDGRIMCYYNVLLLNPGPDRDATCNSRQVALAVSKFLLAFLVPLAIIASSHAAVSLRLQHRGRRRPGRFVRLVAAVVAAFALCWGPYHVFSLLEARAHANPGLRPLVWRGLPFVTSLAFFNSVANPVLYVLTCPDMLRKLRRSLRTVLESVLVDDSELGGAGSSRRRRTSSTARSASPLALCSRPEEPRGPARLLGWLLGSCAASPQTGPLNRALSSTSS
Put plainly: DP2/CRTH2 binding assay (radioligand binding with [3H]PGD2). Conditions: [3H]PGD2 binding, membranes of HEK293 cells expressing recombinant human DP2; read-out: hDP2. The procedure:
The ability of a compound to bind to the human DP2 receptor is assessed via a radioligand binding assay using [^3H]PGD2. HEK293 cells stably expressing recombinant human DP2 are resuspended in 10 mM Hepes, 7.4 containing 1 mM DTT, lysed and centrifuged at 75,000×g to pellet the membranes. The membranes are resuspended in 10 mM Hepes, 7.4 containing 1 mM DTT and 10% glycerol to approximately 5 mg protein/ml. Membranes (2-10 μg protein/well) are incubated in 96-well plates with 1 nM [^3H]PGD2 and test compound in Assay Buffer (50 mM Hepes, 10 mM MnCl2, 1 mM EDTA, plus or minus 0.2% human serum albumin, pH 7.4) for 60 minutes at room temperature. The reactions are terminated by rapid filtration through Whatman GF/C glass fibre filter plates. The filter plates were pre-soaked in 0.33% polythylenimine for 30 minutes at room temperature then washed in Wash Buffer (50 mM Hepes, 0.5 M NaCl pH 7.4) prior to harvesting. After harvesting, the filter plates are washed 3 times with 1 ml cold Wash Buffer then dried. Scintillant is then added to the plates and the radioactivity retained on the filters is determined on a Packard TopCount (Perkin Elmer). Specific binding is determined as total radioactive binding minus non-specific binding in the presence of 10 μM PGD2. IC50s were determined using GraphPad prism analysis of drug titration curves.
`CCN(Cc1cc(C(F)(F)F)ccc1-c1cncc(CC(=O)O)c1)C(=O)NCc1ccccc1` [Compound 14, {5-[2-(3-Benzyl-1-ethyl-ureidomethyl)-4-trifluoromethyl-phenyl]-pyridin-3-yl}-acetic acid]: the IC50 is less than 300 nM.

For `CCN(Cc1cc(C(F)(F)F)ccc1-c1cc(CC(=O)O)c[n+]([O-])c1)C(=O)OCc1ccccc1` [Compound 15, (5-{2-[(N-Benzyloxycarbonyl-N-ethyl-amino)-methyl]-4-trifluoromethyl-phenyl}-1-oxy-pyridin-3-yl)-acetic acid], the IC50 was less than 300 nM.

As to `CCN(Cc1cc(C(F)(F)F)ccc1-c1cncc(CC(=O)O)c1)C(=O)Cc1ccccc1` [Compound 16, (5-{2-[(N-Ethyl-N-phenylacetyl-amino)-methyl]-4-trifluoromethyl-phenyl}-pyridin-3-yl)-acetic acid], the IC50 was less than 300 nM.

Turning to `O=C(O)Cc1cncc(-c2ccc(C(F)(F)F)cc2CN(Cc2ccccc2)C(=O)C2CC2)c1` [Compound 17, (5-{2-[(N-Benzyl-N-cyclopropanecarbonyl-amino)-methyl]-4-trifluoromethyl-phenyl}-pyridin-3-yl)-acetic acid], the IC50 was less than 300 nM.

For `CC(=O)N(Cc1ccccc1)Cc1cc(C(F)(F)F)ccc1-c1cncc(CC(=O)O)c1` [Compound 18, (5-{2-[(N-Acetyl-N-benzyl-amino)-methyl]-4-trifluoromethyl-phenyl}-pyridin-3-yl)-acetic acid], the IC50 is less than 300 nM.

As for `CC(=O)N(Cc1ccccc1)Cc1cc(C(F)(F)F)ccc1-c1cc(CC(=O)O)cnc1Cl` [Compound 19, (5-{2-[(N-Acetyl-N-benzyl-amino)-methyl]-4-trifluoromethyl-phenyl}-6-chloro-pyridin-3-yl)-acetic acid], the IC50 is less than 300 nM.

On to `CC(=O)N(Cc1ccccc1)Cc1cc(C(F)(F)F)ccc1-c1cnc(Cl)c(CC(=O)O)c1` [Compound 20, (5-{2-[(N-Acetyl-N-benzyl-amino)-methyl]-4-trifluoromethyl-phenyl}-2-chloro-pyridin-3-yl)-acetic acid], for which the IC50 is less than 300 nM.

On to `CCN(Cc1cc(SC)ccc1-c1cncc(CC(=O)O)c1)C(=O)C1CC1` [Compound 21, (5-{2-[(N-Cyclopropanecarbonyl-N-ethyl-amino)-methyl]-4-methylsulfanyl-phenyl}-pyridin-3-yl)-acetic acid], for which the IC50 is less than 300 nM.

With `CCN(Cc1cc(SC(C)(C)C)ccc1-c1cncc(CC(=O)O)c1)C(=O)C1CC1` [Compound 22, (5-{4-tert-Butylsulfanyl-2-[(N-cyclopropanecarbonyl-N-ethyl-amino)-methyl]-phenyl}-pyridin-3-yl)-acetic acid], the IC50 is less than 300 nM.

`CCN(Cc1cc(F)ccc1-c1cncc(CC(=O)O)c1)C(=O)C1CC1` [Compound 23, (5-{2-[(N-Cyclopropanecarbonyl-N-ethyl-amino)-methyl]-4-fluoro-phenyl}-pyridin-3-yl)-acetic acid]: the IC50 lay in the range of 300 to 1000 nM.

`CCN(Cc1cc(S)ccc1-c1cncc(CC(=O)O)c1)C(=O)C1CC1` [Compound 24, (5-{2-[(N-Cyclopropanecarbonyl-N-ethyl-amino)-methyl]-4-mercapto-phenyl}-pyridin-3-yl)-acetic acid]: the IC50 is less than 300 nM.

With `CCN(Cc1cc(C(F)(F)F)ccc1-c1cncc(CC(=O)O)c1)C(=O)CCc1ccccc1` [Compound 25, [5-(2-{[N-Ethyl-N-(3-phenyl-propionyl)-amino]-methyl}-4-trifluoromethyl-phenyl)-pyridin-3-yl]-acetic acid], the IC50 is less than 300 nM.

Take `CC(=O)N(Cc1ccccc1)Cc1cc(C(F)(F)F)ccc1-c1cc(CC(=O)O)cnc1O` [Compound 26, (5-{2-[(N-Acetyl-N-benzyl-amino)-methyl]-4-trifluoromethyl-phenyl}-6-hydroxy-pyridin-3-yl)-acetic acid]: the IC50 was less than 300 nM.

On to `CCN(Cc1cc(C(F)(F)F)ccc1-c1cc(CC(=O)O)cnc1OC)C(=O)NCc1ccccc1` [Compound 27, {5-[2-(3-Benzyl-1-ethyl-ureidomethyl)-4-trifluoromethyl-phenyl]-6-methoxy-pyridin-3-yl}-acetic acid], for which the IC50 was less than 300 nM.

As for `COc1ncc(CC(=O)O)cc1-c1ccc(C(F)(F)F)cc1CN(Cc1ccccc1)C(C)=O` [Compound 28, (5-{2-[(N-Acetyl-N-benzyl-amino)-methyl]-4-trifluoromethyl-phenyl}-6-methoxy-pyridin-3-yl)-acetic acid], the IC50 is less than 300 nM.

In the case of `CCN(Cc1cc(C(F)(F)F)ccc1-c1cncc(CC(=O)O)c1)C(=O)c1cnccn1` [Compound 29, [5-(2-{[N-Ethyl-N-(pyrazine-2-carbonyl)-amino]-methyl}-4-trifluoromethyl-phenyl)-pyridin-3-yl]-acetic acid], the IC50 is 300 to 1000 nM.

As to `CCN(Cc1cc(C(F)(F)F)ccc1-c1cncc(CC(=O)O)c1)C(=O)c1cc(OC)nc(OC)n1` [Compound 30], the IC50 was greater than 1000 nM.

In the case of `CCN(Cc1cc(C(F)(F)F)ccc1-c1cncc(CC(=O)O)c1)C(=O)Cc1ccc(Cl)nc1` [Compound 31, {5-[2-({N-[2-(6-Chloro-pyridin-3-yl)-acetyl]-N-ethyl-amino}-methyl)-4-trifluoromethyl-phenyl]-pyridin-3-yl}-acetic acid], the IC50 was less than 300 nM.

Take `CCOc1cc(OCC)nc(CC(=O)N(CC)Cc2cc(C(F)(F)F)ccc2-c2cncc(CC(=O)O)c2)n1` [Compound 32, {5-[2-({N-[2-(4,6-Diethoxy-pyrimidin-2-yl)-acetyl]-N-ethyl-amino}-methyl)-4-trifluoromethyl-phenyl]-pyridin-3-yl}-acetic acid]: the IC50 is less than 300 nM.

Take `CCN(Cc1cc(C(F)(F)F)ccc1-c1cncc(CC(=O)O)c1)C(=O)Cc1ccccn1` [Compound 33, [5-(2-{[N-Ethyl-N-(2-pyridin-2-yl-acetyl)-amino]-methyl}-4-trifluoromethyl-phenyl)-pyridin-3-yl]-acetic acid]: the IC50 was less than 300 nM.

On to `CCN(Cc1cc(C(F)(F)F)ccc1-c1cncc(CC(=O)O)c1)C(=O)COC` [Compound 34, [5-(2-{[N-Ethyl-N-(2-methoxy-acetyl)-amino]-methyl}-4-trifluoromethyl-phenyl)-pyridin-3-yl]-acetic acid], for which the IC50 fell in the range of 300 to 1000 nM.

For `CCOCC(=O)N(CC)Cc1cc(C(F)(F)F)ccc1-c1cncc(CC(=O)O)c1` [Compound 35, [5-(2-{[N-(2-Ethoxy-acetyl)-N-ethyl-amino]-methyl}-4-trifluoromethyl-phenyl)-pyridin-3-yl]-acetic acid], the IC50 fell in the range of 300 to 1000 nM.

As to `CCN(Cc1cc(C(F)(F)F)ccc1-c1cncc(CC(=O)O)c1)C(=O)CCc1cccnc1` [Compound 36, [5-(2-{[N-Ethyl-N-(3-pyridin-3-yl-propionyl)-amino]-methyl}-4-trifluoromethyl-phenyl)-pyridin-3-yl]-acetic acid], the IC50 was 300 to 1000 nM.

`CCN(Cc1cc(C(F)(F)F)ccc1-c1cncc(CC(=O)O)c1)C(=O)Cc1ccc(C)nc1` [Compound 37, {5-[2-({N-Ethyl-N-[2-(6-methyl-pyridin-3-yl)-acetyl]-amino}-methyl)-4-trifluoromethyl-phenyl]-pyridin-3-yl}-acetic acid]: the IC50 was less than 300 nM.

Consider `CCN(Cc1cc(C(F)(F)F)ccc1-c1cc(CC(=O)O)cnc1O)C(=O)C1CC1` [Compound 38, (5-{2-[(N-Cyclopropanecarbonyl-N-ethyl-amino)-methyl]-4-trifluoromethyl-phenyl}-6-hydroxy-pyridin-3-yl)-acetic acid], for which the IC50 lay within 300 to 1000 nM.

On to `CCN(Cc1cc(C(F)(F)F)ccc1-c1cc(CC(=O)O)cnc1OCC(F)(F)F)C(=O)C1CC1` [Compound 39, [5-{2-[(N-Cyclopropanecarbonyl-N-ethyl-amino)-methyl]-4-trifluoromethyl-phenyl}-6-(2,2,2-trifluoro-ethoxy)-pyridin-3-yl]-acetic acid], for which the IC50 is less than 300 nM.

In the case of `CCN(Cc1cc(C(F)(F)F)ccc1-c1cc(CC(=O)O)cnc1OC)C(=O)OCc1ccccc1` [Compound 40, (5-{2-[(N-Benzyloxycarbonyl-N-ethyl-amino)-methyl]-4-trifluoromethyl-phenyl}-6-methoxy-pyridin-3-yl)-acetic acid], the IC50 is less than 300 nM.

Take `CCN(Cc1cc(C(F)(F)F)ccc1-c1cc(CC(=O)O)cnc1OC)C(C)=O` [Compound 41, (5-{2-[(N-Acetyl-N-ethyl-amino)-methyl]-4-trifluoromethyl-phenyl}-6-methoxy-pyridin-3-yl)-acetic acid]: the IC50 lay within 300 to 1000 nM.

As for `CCN(Cc1cc(C(F)(F)F)ccc1-c1cc(CC(=O)O)cnc1OC)C(=O)COC` [Compound 42, [5-(2-{[N-Ethyl-N-(2-methoxy-acetyl)-amino]-methyl}-4-trifluoromethyl-phenyl)-6-methoxy-pyridin-3-yl]-acetic acid], the IC50 is less than 300 nM.
